{"source": "patent US20070077261A1", "about": "(priority 2005, published 2007)", "origin": "cited, not measured here", "conditions": "amount dissolving in 2 ml of glycerin; The Merck Index, 11th Edition", "data": [{"smiles": "NC(N)=O", "note": "[urea]", "values": [{"measurement": "solubility of urea in glycerin", "value": 1, "unit": "gram"}]}]}
